Assay results taken from patent US20140039043A1, “PHARMACEUTICAL COMPOSITIONS COMPRISING CANNABIGEROL” (GW Pharma Limited, priority 2006, published 2014).

Tested on: C57 B16J mice
Experiment: Tail suspension test (animal model of depression)
Assay type: in vivo
Settings: CBG dose greater than or equal to 40 mg/kg ip, tested 30 minutes after injection for six minutes
Procedure: A substantially pure extract of cannabigerol, purified from a cannabis plant extract, was tested for its ability to modify the behaviour of mice during an open field test and a tail suspension test (Steru et al., 1985, Psychopharmacology (Berl.) 85(3), 367-370). The CBG extract was compared to a known antidepressant imipramine.
The experiment used groups of 7-8 C57 B16J mice and these were tested with doses of 0, 5, 10, 20, 40, 60 and 80 mg/kg ip of CBG extract. The dose of imipramine that was used was the standard dose that is known to produce an anti-depressant effect of 30 mg/kg ip. One group of animals were administered a vehicle control.
The animals were subjected to a tail suspension test whereby a sound-attenuated chamber with a titanium bar mounted 15 cm from the floor was used. An opto-electronic sensor was mounted in a white plastic column and positioned from the mounting bar. An infra-red light transmitted from an LED onto the animal. If the animal moved, the amount of light collected by the phototransistor would increase or decrease depending on the size of the movement. […]
The mouse was suspended from a bar by the tip of its tail using adhesive tape so that the tip of their nose was 2 cm from the floor of the chamber. The total number of movements and total amount of time spent immobile were recorded.

With `CCCCCc1cc(O)c(C/C=C(\C)CCC=C(C)C)c(O)c1` [CBG, cannabigerol] the “amount of struggling in the tail suspension test compared with vehicle control” value was “significantly increased”.
